The subject of one assay is A549. The experiment in a line: Compound was tested for its cytotoxicity against A 549 cell line. The following applies: Homo sapiens. Type of assay: functional, cell-based.
The subject of a further assay is P388. The experiment in a line: Compound was tested for its cytotoxicity against P388 cell line. Type of assay: functional, cell-based. The following applies: Mus musculus.
The subject of a further assay is Escherichia coli. The experiment in a line: Compound was tested for minimum inhibitory concentration against Escherichia coli […]. Type of assay: functional.
The subject of another assay is Pseudomonas aeruginosa. The experiment in a line: Compound was tested for minimum inhibitory concentration against Pseudomonas aeruginosa […]. Type of assay: functional.
The subject of another assay is Staphylococcus aureus. The experiment in a line: Compound was tested for minimum inhibitory concentration against Staphylococcus aureus ATCC 25923. Type of assay: functional.
The test system of a further assay is Micrococcus luteus. The experiment in a line: Compound was tested for minimum inhibitory concentration against Micrococcus luteus ATCC 9341. Type of assay: functional.

In brackets after ≈: the same amount, converted by molar mass.

In general, IC50 refers to the concentration at which inhibition is half-maximal. A lower IC50 goes with greater potency in that assay. Turning to `C[C@H](CC(=O)O)[C@]1(C)CC=C2C3=CCC4C(C)(C)[C@H](O)CC[C@]4(C)[C@@H]3CC[C@]21C` (stereo partly specified), the IC50 came out at 60 µM in the assay with A549 and 55 µM in the assay with P388.

One may read the MIC as the smallest concentration in the dilution series that meets the test's criterion for growth inhibition. `C[C@H](Cc1cc(C(=O)O)co1)[C@]1(C)CC=C2C3=CCC4C(C)(C)[C@H](O)CC[C@]4(C)[C@@H]3CC[C@]21C` (stereo partly specified): the IC50 with A549 amounted to 54 µM; with P388 it was 50 µM. Moreover, the MIC was 107 µM (≈ 49.9 µg/mL) in the assay on Escherichia coli, above 215 µM against Pseudomonas aeruginosa, 27 µM (≈ 12.6 µg/mL) in the assay on Staphylococcus aureus and 13 µM (≈ 6.07 µg/mL) with Micrococcus luteus.

As to `C=C[C@@](C)(/C=C/c1ccc(O)cc1)CCC=C(C)C` [BAKUCHIOL], the MIC against Escherichia coli is above 780 µM; with Pseudomonas aeruginosa, above 780 µM; against Staphylococcus aureus, 19 µM (≈ 4.87 µg/mL); against Micrococcus luteus, 10 µM (≈ 2.56 µg/mL).

As for `C=CCc1ccc(O)c(-c2cc(CC=C)ccc2O)c1` [MAGNOLOL], the MIC in the assay with Escherichia coli was above 750 µM; in the assay on Pseudomonas aeruginosa it was above 750 µM; in the assay with Staphylococcus aureus, 48 µM (≈ 12.8 µg/mL); with Micrococcus luteus, 48 µM (≈ 12.8 µg/mL).
